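Assay format: 96-well plates, 48-hour exposure. GI50 marks 50% less growth.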 The source made the active and inactive calls. No stated cut-off is given here; in the data, active = GI50 up to about 1.1 µM and inactive = higher.
Key:
Assay in all cases: NCI anticancer screen, dose series, 48 h
UACC-257 = test system: UACC-257
OVCAR-8 = test system: OVCAR-8
OVCAR-4 = test system: OVCAR-4
KM12 = test system: KM12
MDA-MB-231 = test system: MDA-MB-231
U-251 = test system: U-251
SK-OV-3 = test system: SK-OV-3
SF-268 = test system: SF-268
PC-3 = test system: PC-3
HL-60 = test system: HL-60
LOX IMVI = test system: LOX IMVI
NCI-H460 = test system: NCI-H460
HCT-116 = test system: HCT-116
SK-MEL-5 = test system: SK-MEL-5
SNB-19 = test system: SNB-19
786-0 = test system: 786-0
NCI/ADR-RES = test system: NCI/ADR-RES
RXF 393 = test system: RXF 393
NCI-H522 = test system: NCI-H522

Structure (SMILES)	GI50 (UACC-257)	GI50 (OVCAR-8)	GI50 (OVCAR-4)	GI50 (KM12)	GI50 (MDA-MB-231)	GI50 (U-251)	GI50 (SK-OV-3)	GI50 (SF-268)	GI50 (PC-3)	GI50 (HL-60)	GI50 (LOX IMVI)	GI50 (NCI-H460)	GI50 (HCT-116)	GI50 (SK-MEL-5)	GI50 (SNB-19)	GI50 (786-0)	GI50 (NCI/ADR-RES)	GI50 (RXF 393)	GI50 (NCI-H522)
COCCCN(Cc1cc(OC)c(OC)c(OC)c1)C(=S)Nc1cccc(Cl)c1	19.6 µM (inactive)	25 µM (inactive)	24.4 µM (inactive)	23.1 µM (inactive)	26 µM (inactive)	31.8 µM (inactive)	41 µM (inactive)	19.9 µM (inactive)	25.1 µM (inactive)	17.7 µM (inactive)	21.5 µM (inactive)	30.1 µM (inactive)	17.2 µM (inactive)	13.9 µM (inactive)	43.7 µM (inactive)	26.5 µM (inactive)	21.1 µM (inactive)	26.8 µM (inactive)	
O=C1CCCSCCCC(=O)CCCSCCC1	> 100 µM (inactive)	> 100 µM (inactive)	> 100 µM (inactive)	> 100 µM (inactive)	> 100 µM (inactive)	> 100 µM (inactive)	> 100 µM (inactive)	> 100 µM (inactive)	> 100 µM (inactive)	> 100 µM (inactive)	> 100 µM (inactive)	> 100 µM (inactive)	> 100 µM (inactive)	> 100 µM (inactive)	> 100 µM (inactive)	> 100 µM (inactive)	> 100 µM (inactive)		> 100 µM (inactive)
COc1cc(C2c3cc4c(cc3OC(NN=C(C)C)C2C)OCO4)cc(OC)c1O (configuration not stated)	89.3 µM (inactive)	27.5 µM (inactive)	48.3 µM (inactive)	21.2 µM (inactive)	27.9 µM (inactive)	29.2 µM (inactive)		31.5 µM (inactive)	20.8 µM (inactive)				24.9 µM (inactive)	10.8 µM (inactive)	85.5 µM (inactive)	28.1 µM (inactive)	18 µM (inactive)	24.7 µM (inactive)	3.94 µM (inactive)
COc1ccccc1-c1nc[nH]c1-c1ccccc1OC	25.3 µM (inactive)		25.8 µM (inactive)	2.45 µM (inactive)	21.7 µM (inactive)		36.1 µM (inactive)	14.4 µM (inactive)	18.6 µM (inactive)		16.8 µM (inactive)	24.3 µM (inactive)	31.8 µM (inactive)		35.2 µM (inactive)	35.5 µM (inactive)	22 µM (inactive)	24.5 µM (inactive)	13.2 µM (inactive)
CCSc1nc2n(c(=S)n1)CCN2C	12.1 µM (inactive)	20.7 µM (inactive)	18.5 µM (inactive)	21.4 µM (inactive)		19.8 µM (inactive)	21 µM (inactive)	27.9 µM (inactive)		16.4 µM (inactive)	18.4 µM (inactive)	21.1 µM (inactive)	15.7 µM (inactive)	15.2 µM (inactive)	20.6 µM (inactive)	18.5 µM (inactive)		7.89 µM (inactive)	5.4 µM (inactive)
COc1ccc2c(c1)CCC1=CC3(CCC12C)SCCS3 (configuration not stated)	> 10 µM (inactive)	> 10 µM (inactive)	> 10 µM (inactive)	4.27 µM (inactive)	4.08 µM (inactive)	9.73 µM (inactive)	3.27 µM (inactive)	3.13 µM (inactive)	8.26 µM (inactive)	2.81 µM (inactive)	7.06 µM (inactive)			6.93 µM (inactive)	> 10 µM (inactive)	5.64 µM (inactive)	3.56 µM (inactive)		2.99 µM (inactive)
COc1ccccc1NC(=S)NN=C(C)c1cccc(C(C)=NNC(=S)Nc2ccccc2OC)n1	25.8 µM (inactive)	12.9 µM (inactive)	24.4 µM (inactive)	26.1 µM (inactive)	5.16 µM (inactive)	34.3 µM (inactive)	99.8 µM (inactive)	15.9 µM (inactive)	27 µM (inactive)	26.3 µM (inactive)	31.8 µM (inactive)	24 µM (inactive)	2.95 µM (inactive)	3.94 µM (inactive)	77.4 µM (inactive)	6.64 µM (inactive)	10.4 µM (inactive)	12.9 µM (inactive)	45.6 µM (inactive)
O=C1Nc2ccccc2/C1=N/NC(=S)N1CCCCCC1	2.54 µM (inactive)	0.895 µM (active)	1.38 µM (inactive)	0.283 µM (active)	0.56 µM (active)	1.11 µM (active)	1.65 µM (inactive)	0.322 µM (active)	0.453 µM (active)		0.507 µM (active)	0.09 µM (active)	0.312 µM (active)	0.0723 µM (active)	1.54 µM (inactive)	0.332 µM (active)	0.0769 µM (active)	0.644 µM (active)	2.47 µM (inactive)
CCCCNC(=S)N/C=C1\C(=O)Oc2ccccc2C1=O	> 100 µM (inactive)	42.4 µM (inactive)	74.5 µM (inactive)	> 100 µM (inactive)	73.8 µM (inactive)	54 µM (inactive)	> 100 µM (inactive)		92.5 µM (inactive)	10 µM (inactive)	> 100 µM (inactive)	64.1 µM (inactive)	73.5 µM (inactive)	> 100 µM (inactive)	49.4 µM (inactive)	> 100 µM (inactive)	> 100 µM (inactive)		
O=C(c1ccccc1)c1c(C(=O)c2ccccc2)c(-c2ccccc2)c2c(-c3ccccc3)sc(-c3ccccc3)c2c1-c1ccccc1	> 100 µM (inactive)	> 100 µM (inactive)	> 100 µM (inactive)	> 100 µM (inactive)		> 100 µM (inactive)	> 100 µM (inactive)	> 100 µM (inactive)		> 100 µM (inactive)	> 100 µM (inactive)	> 100 µM (inactive)	> 100 µM (inactive)	> 100 µM (inactive)	> 100 µM (inactive)	> 100 µM (inactive)		> 100 µM (inactive)	> 100 µM (inactive)
CC1=C(C(=O)Nc2ccccc2C)C(c2ccc(Cl)cc2)C(C(=O)Nc2ccccc2C)=C(C)N1	> 100 µM (inactive)	> 100 µM (inactive)	> 100 µM (inactive)	> 100 µM (inactive)		> 100 µM (inactive)	> 100 µM (inactive)	> 100 µM (inactive)		> 100 µM (inactive)	> 100 µM (inactive)	> 100 µM (inactive)	> 100 µM (inactive)	> 100 µM (inactive)	> 100 µM (inactive)	> 100 µM (inactive)		> 100 µM (inactive)	> 100 µM (inactive)
Oc1cccc(-c2nc3cc(F)ccc3s2)c1	13.9 µM (inactive)	20.6 µM (inactive)	9.42 µM (inactive)	11.9 µM (inactive)	15.9 µM (inactive)	24.5 µM (inactive)	16.7 µM (inactive)	23.9 µM (inactive)	24.2 µM (inactive)	23.2 µM (inactive)	15.6 µM (inactive)	18.6 µM (inactive)	21.3 µM (inactive)	10.7 µM (inactive)	24.4 µM (inactive)	19.5 µM (inactive)	17.4 µM (inactive)	25.9 µM (inactive)	10.6 µM (inactive)

From ChEMBL document CHEMBL1201862, “PubChem BioAssay data set” (2004)
